Among the data in DBAASP are MIC values, retold here.

Holding throughout (assay): ≥ marks a high value that may be exact or a test limit, other limits are often not marked, values filed in µg/mL are converted to µM
For test [1], the system named is Staphylococcus aureus NBRC 12732.
Test [2] concerns Pseudomonas aeruginosa NBRC 12582.
In test [3] the test system is Micrococcus luteus NBRC 12708.
Test [4] has as its system Escherichia coli NBRC 14237.
Test [5] deals with Nocardia asteroides 201118.
Test [6] deals with Enterococcus faecalis 981.
Test [7] concerns Staphylococcus aureus ATCC 25923.
Test [8] has as its system Candida glabrata 090902.
The subject of test [9] is Psychrobacter faecalis X29.
For test [10], the system named is Pseudomonas aeruginosa PA006.
Test [11] concerns Pseudomonas aeruginosa Pa4-SA2.
The subject of test [12] is Pseudomonas aeruginosa Pa1-SA2.
The test system of test [13] is Pseudomonas aeruginosa ATCC 27853.
For test [14], the system named is Salmonella enterica subsp. enterica serovar Typhimurium ATCC 14028.
Test [15] relates to Pseudomonas aeruginosa PAO1.
In test [16] the test system is Staphylococcus aureus ATCC 29313.
For test [17], the system named is Klebsiella pneumoniae ATCC 700603.
Test [18] concerns Escherichia coli ATCC 25922.
Test [19] relates to Candida glabrata CCM 8270.
The subject of test [20] is Candida tropicalis CCM 8264.
Test [21] has as its system Pseudomonas syringae pv. syringae EPS 94.
The subject of test [22] is Candida albicans CCM 8186.
Test [23] relates to Xanthomonas arboricola pv. pruni CFBP 5563.
Test [24] relates to Xanthomonas fragariae Xf349-9A.
Test [25] relates to Bacillus subtilis.
The subject of test [26] is Fusobacterium nucleatum ATCC 10953.
Test [27] concerns Candida krusei CCM 8271.
The subject of test [28] is Xanthomonas campestris pv. Vesicatoria 2133-2.
The subject of test [29] is Candida parapsilosis CCM 8260.
For test [30], the system named is Escherichia coli PCM 2057.
The test system of test [31] is Staphylococcus aureus PCM 2054.
For test [32], the system named is Staphylococcus epidermidis PCM 2118.
Test [33] deals with Pseudomonas aeruginosa PCM 499.
The test system of test [34] is Porphyromonas gingivalis ATCC 33277.
Test [35] has as its system Erwinia amylovora PMV 6076.
For test [36], the system named is Pseudomonas syringae pv. actinidiae Psa3700.1.1.
In test [37] the test system is Bacillus cereus.
Test [38] deals with Bacillus cereus AS1.126.
Test [39] relates to Klebsiella aerogenes CGMCC 1.876.
Test [40] relates to Enterococcus faecium CGMCC 1.2334.
In test [41] the test system is Klebsiella pneumoniae subsp. pneumoniae CGMCC 1.176.
Test [42] relates to Staphylococcus aureus AS1.72.
Test [43] relates to Acinetobacter baumannii CICC 22934.
The test system of test [44] is Pseudomonas aeruginosa CGMCC 1.860.
The test system of test [45] is Lactococcus lactis AS1.1690.
The test system of test [46] is Enterococcus faecalis CGMCC 1.595.
Test [47] concerns Escherichia coli AS1.349.
In test [48] the test system is Proteus mirabilis CICC 22931.
The subject of test [49] is Enterobacter cloacae CGMCC 1.58.

Each structure is given as a SMILES string. Values after ≈ are worked out from the molar mass of the structure shown.

As for `CC[C@H](C)[C@H](NC(=O)[C@@H](N)Cc1ccccc1)C(=O)NCC(=O)N[C@@H](C)C(=O)N[C@@H](CC(C)C)C(=O)N[C@@H](CC(C)C)C(=O)NCC(=O)N1CCC[C@H]1C(=O)N[C@@H](CC(C)C)C(=O)N[C@@H](CC(C)C)C(=O)N[C@@H](CC(N)=O)C(=O)N[C@@H](CC(C)C)C(=O)N[C@@H](CC(C)C)C(=O)N[C@@H](CCCCN)C(N)=O` [FIGALLGPLLNLLK], the MIC in test [1] was 12.5 µM (≈ 18.5 µg/mL); in [2], ≥ 50 µM; in [3], 12.5 µM (≈ 18.5 µg/mL); in test [4], ≥ 50 µM.

With `CC[C@H](C)[C@H](NC(=O)[C@H](CC(C)C)NC(=O)CNC(=O)[C@@H]1CCCN1C(=O)[C@H](CC(C)C)NC(=O)[C@@H](N)Cc1ccccc1)C(=O)N[C@@H](CCCCN)C(=O)N[C@@H](C)C(=O)N[C@@H](C)C(=O)N[C@H](C(=O)NCC(=O)N[C@H](C(=O)NCC(=O)N[C@@H](CO)C(=O)N[C@H](C(=O)N[C@H](C(=O)N[C@@H](CC(C)C)C(=O)N[C@H]1CSSC[C@@H](C(=O)O)NC(=O)[C@H](CCCCN)NC(=O)[C@H](CCCCN)NC(=O)[C@H]([C@@H](C)O)NC(=O)[C@H]([C@@H](C)CC)NC(=O)[C@H](CCCCN)NC1=O)[C@@H](C)CC)[C@@H](C)O)C(C)C)C(C)C` [FLPGLIKAAVGVGSTILCKITKKC], the MIC in test [5] is 6.3 µM (≈ 15.5 µg/mL); in test [6], 6.3 µM (≈ 15.5 µg/mL); in test [7], 12.5 µM (≈ 30.7 µg/mL); in test [8], 12.5 µM (≈ 30.7 µg/mL); in test [9] it was ≥ 50 µM.

For the compound `CC[C@H](C)[C@H](NC(=O)[C@H](C)NC(=O)[C@H](Cc1cnc[nH]1)NC(=O)[C@H](C)NC(=O)[C@@H](NC(=O)[C@H](CC(C)C)NC(=O)[C@H](CC(=O)O)NC(=O)[C@H](CCCCN)NC(=O)CNC(=O)[C@H](C)NC(=O)CNC(=O)[C@H](CCCCN)NC(=O)[C@@H](NC(=O)[C@@H](NC(=O)[C@H](CC(=O)O)NC(=O)[C@@H](NC(=O)[C@@H](NC(=O)CN)C(C)C)[C@@H](C)CC)[C@@H](C)CC)[C@@H](C)CC)[C@@H](C)CC)C(=O)NCC(=O)N[C@@H](CCCCN)C(=O)N[C@@H](CC(C)C)C(=O)N[C@@H](C)C(=O)N[C@@H](CCC(=O)O)C(=O)N[C@@H](CCCCN)C(=O)N[C@H](C(N)=O)C(C)C` [GVIDIIKGAGKDLIAHAIGKLAEKV], the MIC was 6.32 µM (≈ 16 µg/mL) in test [10]; 25.3 µM (≈ 64 µg/mL) in test [11]; ≥ 50.6 µM in test [12]; > 202 µM in test [13]; > 316 µM in [14]; 202 µM (≈ 512 µg/mL) in test [15]. Also, the minimum inhibitory concentration (MIC) in [16] was ≥ 316 µM; in test [17] it was > 316 µM; in test [18], 316 µM (≈ 800 µg/mL).

With `CC(C)[C@H](NC(=O)[C@H](Cc1c[nH]c2ccccc12)NC(=O)[C@H](Cc1ccccc1)NC(=O)[C@@H](NC(=O)[C@@H](NC(=O)[C@H](CCCCN)NC(=O)[C@@H](N)CCCCN)C(C)C)C(C)C)C(=O)N[C@@H](CCCCN)C(=O)N[C@@H](Cc1ccccc1)C(=O)N[C@@H](CCCCN)C(N)=O` [KKVVFWVKFK], the MIC in [19] was found to be 11.9 µM (≈ 15.6 µg/mL); in [20], 1.53 µM (≈ 2 µg/mL); in test [21], 8.8 µM (≈ 11.5 µg/mL); in [22] it was 5.96 µM (≈ 7.79 µg/mL); in test [23], 1.13 µM (≈ 1.48 µg/mL); in test [24], 4.38 µM (≈ 5.73 µg/mL). In addition, the MIC in [25] came to 5.96 µM (≈ 7.79 µg/mL); in test [26], 11.9 µM (≈ 15.6 µg/mL); in test [27], 5.96 µM (≈ 7.79 µg/mL); in test [28], 8.8 µM (≈ 11.5 µg/mL); in test [29], 1.53 µM (≈ 2 µg/mL); in test [30], 5.96 µM (≈ 7.79 µg/mL). Moreover, the MIC is 19.1 µM (≈ 25 µg/mL) in test [31]; 5.96 µM (≈ 7.79 µg/mL) in [32]; 19.1 µM (≈ 25 µg/mL) in [33]; ≥ 95.5 µM in test [34]; 8.8 µM (≈ 11.5 µg/mL) in [35]; 2.23 µM (≈ 2.91 µg/mL) in test [36]. The MIC in test [37] is ≥ 38.2 µM.

On to `CC(C)C[C@H](NC(=O)[C@H](CCCCN)NC(=O)[C@H](CCCN=C(N)N)NC(=O)[C@H](Cc1cnc[nH]1)NC(=O)[C@H](C)NC(=O)[C@H](CCCN=C(N)N)NC(=O)[C@H](Cc1cnc[nH]1)NC(=O)[C@H](CC(C)C)NC(=O)[C@H](Cc1ccccc1)NC(=O)[C@H](CCCN=C(N)N)NC(=O)[C@H](CCCN=C(N)N)NC(=O)[C@H](CC(C)C)NC(=O)[C@H](Cc1cnc[nH]1)NC(=O)[C@H](CCCN=C(N)N)NC(=O)[C@H](CC(C)C)NC(=O)[C@@H](NC(=O)[C@H](CCCCN)NC(=O)[C@@H](N)CO)C(C)C)C(=O)O` [SKVLRHLRRFLHRAHRKL], for which the MIC was 1.56 µM (≈ 3.63 µg/mL) in test [38]; ≥ 100 µM in test [39]; 3.13 µM (≈ 7.27 µg/mL) in [40]; ≥ 100 µM in test [41]; 2.34 µM (≈ 5.44 µg/mL) in test [42]; ≥ 100 µM in [43]. Moreover, the minimum inhibitory concentration (MIC) in [44] is ≥ 100 µM; in test [45] it was 3.13 µM (≈ 7.27 µg/mL); in test [46], 3.13 µM (≈ 7.27 µg/mL); in test [47], ≥ 100 µM; in test [48] it was ≥ 100 µM; in test [49], ≥ 100 µM.
